From patent US20250114374A1, “BCL-2 INHIBITORS” (Newave Pharmaceutical Inc., priority 2021, published 2025)

System: RS4; 11 with G101V mutation
Experiment: In vitro anti-proliferation assay (ATPlite luminescence) in BCL-2-dependent ALL cell line RS4;11 with G101V mutation
Type: cell-based
Conditions: Homo sapiens, RS4-11, 72 h; read-out: RS411-G101V IC50
In short: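 IC50 came from luminescent ATP quantification (ATPlite) following cell lysis. Compound dose ranges were applied for roughly 72 h to about 1×10^4 G101V-mutant RS4;11 cells per well, in 10% FBS medium.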

| IC50 | SMILES |
| --- | --- |
| 0.0563 µM | CC(C)Oc1ccccc1[C@@H]1CN([C@@H]2CCOc3nc(N4CCOC[C@@H]4C)c(F)cc32)CCN1C1CC2(CCN(c3ccc(C(=O)NS(=O)(=O)c4cc5c(c([N+](=O)[O-])c4)N[C@H](C4CCOCC4)CO5)c(N4c5cc6cc[nH]c6nc5O[C@H]5COCC[C@@H]54)c3)CC2)C1 [Example 219, 4-(2-((R)-4-((R)-6-fluoro-7-((S)-3-methylmorpholino)-3,4-dihydro-2H-pyrano[2,3-b]pyridin-4-yl)-2-(2-isopropoxyphenyl)piperazin-1-yl)-7-azaspiro[3.5]nonan-7-yl)-N-(((R)-5-nitro-3-(tetrahydro-2H-pyran-4-yl)-3,4-dihydro-2H-benzo[b][1,4]oxazin-7-yl)sulfonyl)-2-((5aS,9aR)-6,7,9,9a-tetrahydro-1H-pyrano[3,4-b]pyrrolo[3′,2′:5,6]pyrido[3,2-e][1,4]oxazin-5(5aH)-yl)benzamide] |
| 0.0039 µM | CC(C)Oc1ccccc1[C@@H]1CN(Cc2ccc(C3CC3)nc2)CCN1C1CC2(CCN(c3ccc(C(=O)NS(=O)(=O)c4cc5c(c([N+](=O)[O-])c4)N[C@H](C4CCOCC4)CO5)c(N4c5cc6cc[nH]c6nc5O[C@H]5COCC[C@@H]54)c3)CC2)C1 [Example 257, 4-(2-((R)-4-((6-cyclopropylpyridin-3-yl)methyl)-2-(2-isopropoxyphenyl)piperazin-1-yl)-7-azaspiro[3.5]nonan-7-yl)-N-(((R)-5-nitro-3-(tetrahydro-2H-pyran-4-yl)-3,4-dihydro-2H-benzo[b][1,4]oxazin-7-yl)sulfonyl)-2-((5aS,9aR)-6,7,9,9a-tetrahydro-1H-pyrano[3,4-b]pyrrolo[3′,2′:5,6]pyrido[3,2-e][1,4]oxazin-5(5aH)-yl)benzamide] |
| 0.0843 µM | COc1cc2c(nc1N1CCOC[C@@H]1C)COC[C@H]2N1CCN(C2CC3(CCN(c4ccc(C(=O)NS(=O)(=O)c5cc6c(c([N+](=O)[O-])c5)N[C@H](C5CCOCC5)CO6)c(N5c6cc7cc[nH]c7nc6O[C@H]6COCC[C@@H]65)c4)CC3)C2)[C@H](c2ccccc2OC(C)C)C1 [Example 232, 4-(2-((R)-2-(2-isopropoxyphenyl)-4-((S)-3-methoxy-2-((S)-3-methylmorpholino)-5,8-dihydro-6H-pyrano[3,4-b]pyridin-5-yl)piperazin-1-yl)-7-azaspiro[3.5]nonan-7-yl)-N-(((R)-5-nitro-3-(tetrahydro-2H-pyran-4-yl)-3,4-dihydro-2H-benzo[b][1,4]oxazin-7-yl)sulfonyl)-2-((5aS,9aR)-6,7,9,9a-tetrahydro-1H-pyrano[3,4-b]pyrrolo[3′,2′:5,6]pyrido[3,2-e][1,4]oxazin-5(5aH)-yl)benzamide] |

Same assay, conditions: cellular anti-proliferative IC50, about 72 hours, medium with 10% FBS, ATPlite; read-out: RS411-G101V IC50

| SMILES | IC50 |
| --- | --- |
| COc1cc(CN2CCN(C3CC4(CCN(c5ccc(C(=O)NS(=O)(=O)c6ccc(NC[C@H]7CC[C@](C)(O)CC7)c([N+](=O)[O-])c6)c(N6c7cc8cc[nH]c8nc7O[C@H]7COCC[C@@H]76)c5)CC4)C3)[C@H](c3ccccc3C)C2)cnc1N1CCOC[C@@H]1C [Example 138, N-((4-((((1r,4r)-4-hydroxy-4-methylcyclohexyl)methyl)amino)-3-nitrophenyl)sulfonyl)-4-(2-((R)-4-((5-methoxy-6-((S)-3-methylmorpholino)pyridin-3-yl)methyl)-2-(o-tolyl)piperazin-1-yl)-7-azaspiro[3.5]nonan-7-yl)-2-((5aS,9aR)-6,7,9,9a-tetrahydro-1H-pyrano[3,4-b]pyrrolo[3′,2′:5,6]pyrido[3,2-e][1,4]oxazin-5(5aH)-yl)benzamide] | 0.0017 µM |
| CC(C)Oc1ccccc1[C@@H]1CN(Cc2ccc(F)c(F)c2)CCN1C1CC2(CCN(c3ccc(C(=O)NS(=O)(=O)c4cc5c(c([N+](=O)[O-])c4)N[C@H](C4CCOCC4)CO5)c(N4c5cc6cc[nH]c6nc5O[C@@H]5CCOC[C@H]54)c3)CC2)C1 [Example 241, 4-{2-[(2R)-4-[(3,4-difluorophenyl)methyl]-2-(2-isopropoxyphenyl)piperazin-1-yl]-7-azaspiro[3.5]nonan-7-yl}-2-[(3R,8R)-5,9-dioxa-2,11,13-triazatetracyclo[8.7.0.0^{3,8}.0^{12,16}]heptadeca-1(10),11,14,16-tetraen-2-yl]-N-[(3R)-5-nitro-3-(oxan-4-yl)-3,4-dihydro-2H-1,4-benzoxazin-7-ylsulfonyl]benzamide] | 0.00445 µM |
| Cc1ccccc1[C@@H]1CN(C2CCC(N3CCOC[C@@H]3C)CC2)CCN1C1CC2(CCN(c3ccc(C(=O)NS(=O)(=O)c4cc5c(c([N+](=O)[O-])c4)N[C@H](C4CCOCC4)CO5)c(N4c5cc6cc[nH]c6nc5O[C@H]5COCC[C@@H]54)c3)CC2)C1 (stereo partly drawn) [Example 204, 4-(2-((R)-4-((1R,4S)-4-((S)-3-methylmorpholino)cyclohexyl)-2-(o-tolyl)piperazin-1-yl)-7-azaspiro[3.5]nonan-7-yl)-N-(((R)-5-nitro-3-(tetrahydro-2H-pyran-4-yl)-3,4-dihydro-2H-benzo[b][1,4]oxazin-7-yl)sulfonyl)-2-((5aS,9aR)-6,7,9,9a-tetrahydro-1H-pyrano[3,4-b]pyrrolo[3′,2′:5,6]pyrido[3,2-e][1,4]oxazin-5(5aH)-yl)benzamide] | 0.0275 µM |
| CC(C)Oc1ccccc1[C@@H]1CN(Cc2ccc(F)c(F)c2)CCN1C1CC2(CCN(c3nc(N4c5cc6cc[nH]c6nc5O[C@H]5COCC[C@@H]54)c(C(=O)NS(=O)(=O)c4cc5c(c([N+](=O)[O-])c4)N[C@H](C4CCOCC4)CO5)cc3F)CC2)C1 [Example 234, 6-{2-[(2R)-4-[(3,4-difluorophenyl)methyl]-2-(2-isopropoxyphenyl)piperazin-1-yl]-7-azaspiro[3.5]nonan-7-yl}-2-[(3R,8S)-2,5-dioxa-9,15,17-triazatetracyclo[8.7.0.0^{3,8}.0^{12,16}]heptadeca-1(10),11,13,16-tetraen-9-yl]-5-fluoro-N-[(3R)-5-nitro-3-(oxan-4-yl)-3,4-dihydro-2H-1,4-benzoxazin-7-ylsulfonyl]pyridine-3-carboxamide] | 0.181 µM |
| Cc1ccccc1[C@@H]1CN([C@@H]2CCOc3cc(F)c(F)cc32)CCN1C1CC2(CCN(c3ccc(C(=O)NS(=O)(=O)c4cc5c(c([N+](=O)[O-])c4)N[C@H](C4CCOCC4)CO5)c(N4c5cc6cc[nH]c6nc5O[C@H]5COCC[C@@H]54)c3)CC2)C1 [Example 171, 4-{2-[(2R)-4-[(4R)-6,7-difluoro-3,4-dihydro-2H-1-benzopyran-4-yl]-2-(2-methylphenyl)piperazin-1-yl]-7-azaspiro[3.5]nonan-7-yl}-2-[(3R,8S)-2,5-dioxa-9,15,17-triazatetracyclo[8.7.0.0^{3,8}.0^{12,16}]heptadeca-1(10),11,13,16-tetraen-9-yl]-N-[(3R)-5-nitro-3-(oxan-4-yl)-3,4-dihydro-2H-1,4-benzoxazin-7-ylsulfonyl]benzamide] | 0.22 µM |
| CC(C)Oc1ccccc1[C@H]1CN(C2CCC(N3CCOC[C@H]3C)CC2)CCN1C1CC2(CCN(c3ccc(C(=O)NS(=O)(=O)c4ccc(NCC5CCC(C)(O)CC5)c([N+](=O)[O-])c4)c(N4c5cc6cc[nH]c6nc5O[C@H]5COCC[C@@H]54)c3)CC2)C1 (stereo partly drawn) [Example 161, N-((4-((((1r,4r)-4-hydroxy-4-methylcyclohexyl)methyl)amino)-3-nitrophenyl)sulfonyl)-4-(2-((S)-2-(2-isopropoxyphenyl)-4-((1R,4S)-4-((R)-3-methylmorpholino)cyclohexyl)piperazin-1-yl)-7-azaspiro[3.5]nonan-7-yl)-2-((5aS,9aR)-6,7,9,9a-tetrahydro-1H-pyrano[3,4-b]pyrrolo[3′,2′:5,6]pyrido[3,2-e][1,4]oxazin-5(5aH)-yl)benzamide] | 0.0181 µM |
